Marks after values point to notes of the source that are not given here.
Tested on: multi-species bacterial consortium
Test: dose-challenge efficacy assay against bacterial consortium, spread plate cell enumeration
Type: cell-based
Conditions: for effect on cell counts of the consortium (in words) / population size of bacterial consortium, log10 colony counts: Example 1; for effect on cell counts of the consortium (in words): 0.5 mg/l total, 20 minutes exposure, pH 5 to 8; for population size of bacterial consortium, log10 colony counts: 20 minute exposure, total halogen 0.5 mg/l, average of three values; for numbers of surviving cells, Log10 transformations of the plate counts: Example 2, 20-minute contact time, 0.5 mg/l (as Cl2) active, initial approx. 2×10^5 bacteria per milliliter
Protocol: The efficacies of the individual haloamines and the synergistic combination produced with the apparatus described above were determined using a consortium of microorganisms and a dose-response protocol. Concentrations of monochloramine and dichloramine reported herein are in units of milligrams per liter as measured by Cl2 analysis; the Hach DPD chlorine test (Hach Company, Loveland, Colo.) was used to measure the total available chlorine concentrations and are expressed as milligrams per liter as Cl2. The DPD assay is based on the amount of chlorine in a sample that reacts with N,N-diethyl-p-phenylenediamine oxalate. To determine the amount of monochloramine or dichloramine in a sample, an aliquot of the sample was transferred to a clean container, diluted with deionized water, as appropriate, and assayed according to the Hach DPD chlorine test. The assay measures the total amount of chlorine that can react with the indicator reagent. The reaction is measured by determining the absorbance of light at 530 nm. Therefore, for the purposes of this invention, a quantity of monochloramine or dichloramine presented in units of mg/l signifies that amount of monochloramine or dichloramine that contains the designated amount of milligrams per liter of reactive chlorine. Thus, for example, a sample treated with 1 mg/l monochloramine or dichloramine will contain a total available chlorine concentration of 1 mg/l. Similarly, a sample treated with 0.5 mg/l monochloramine and 0.5-mg/l dichloramine will contain a total available chlorine concentration of 1 mg/l.
The materials were tested against multi-species bacterial consortium (also referred to as an artificial consortium) containing approximately equal numbers of six bacterial strains. Although the test strains are representative of organisms present in paper mill systems; the effect is not limited to these bacteria. Two of the strains were Klebsiella pneumonia (ATCC 13883) and Pseudomonas aeruginosa (ATCC 15442). The other four strains were isolated from papermill systems and have been presumptively identified as Curtobacterium flaccumfaciens, Burkholderia cepacia, Bacillus maroccanus, and Pseudomonas glathei. Each strain was grown on Tryptic Soy Agar overnight at 37° C. Sterile cotton-tipped swabs were used to aseptically transfer cells to a sterile solution of saline. Each cell suspension was prepared to a desired concentration as measured by turbidity before equal volumes of each of the cell suspensions were then combined to prepare the consortium.
A sample of the biocide solution was aseptically collected at the end of line 11 after the apparatus had been operated for approximately 20 minutes and used in an efficacy assay. Samples of the monochloramine solution in reservoir 3 and the dichloramine solution in mixing chamber 16 were also collected to test efficacy of each active. In the assay, the bacterial consortium was prepared as described above and an appropriate quantity of the cell suspension was aseptically transferred to sterile saline with pH adjusted to selected values. The cells were then challenged with the haloamines and synergistic combinations of the haloamines. In each case, the total halogen concentration was 0.5 mg/l (as […]). In this example, in addition to untreated control, the consortium was exposed to the following treatments: (1) 0.5 mg/l of monochloramine; 0.5 mg/l dichloramine; (3) 0.25 mg/l monochloramine plus 0.25 mg/l dichloramine; and (4) 0.4 mg/l monochloramine plus 0.1 mg/l dichloramine. The consortium was exposed to the haloamines for 20 minutes before samples were removed for cell enumeration by the spread plate technique. […] The control counts presented in Table 1 are those obtained after a 20 minute exposure to saline with pH adjusted to the indicated value.
The dose-challenge studies were carried out as previously described using a freshly prepared bacterial consortium. Sterile saline was prepared with pH adjusted to values of 5.0, 6.0, 7.0 and 8.0. […]

Row | SMILES | effect on cell counts of the consortium (in words) | population size of bacterial consortium, log10 colony counts (pH 5 saline) | population size of bacterial consortium, log10 colony counts (pH 6 saline) | population size of bacterial consortium, log10 colony counts (pH 7 saline) | population size of bacterial consortium, log10 colony counts (pH 8 saline) | numbers of surviving cells, Log10 transformations of the plate counts (pH 5 saline) | numbers of surviving cells, Log10 transformations of the plate counts (pH 6 saline) | numbers of surviving cells, Log10 transformations of the plate counts (pH 7 saline) | numbers of surviving cells, Log10 transformations of the plate counts (pH 8 saline)
1 | ClNCl [DCA, dichloramine] | decreased cell counts | 3.50 log10 colony counts | 5.16 log10 colony counts | 5.01 log10 colony counts | 5.19 log10 colony counts | 3.56 Log10 | 5.16* Log10 | 5.07 Log10 | 5.24 Log10
2 | NCl [MCA, monochloramine] | decreased cell counts | 4.93 log10 colony counts | 4.94 log10 colony counts | 5.06 log10 colony counts | 5.36 log10 colony counts | 5.03 Log10 | 4.84 Log10 | 5.13 Log10 | 5.41 Log10
